Like-named read-outs stand apart in the source and are kept apart here. Numbered stars: 1 amine (or outer) side, 2 acyl side, 3 side chain; on linkers, the order of the positions; unused ones are H or OH. Bridge positions count the residues as written; N and C are the ends. Square brackets hold non-standard residues; d marks the D form. Peptide text beside a SMILES is read from it. I, II: the chains in the order shown. Actinocin(9to1) = Cc1c2oc3c(C)ccc(C(=O)[*:1])c3nc-2c(C(=O)[*:2])c(N)c1=O; NMeV = CN[C@H](C(=O)O)C(C)C; Sar = CNCC(=O)O
What was measured:
[1] = system: Tacaribe (TRVL 11573) virus; assay: microbe, parasite or virus in culture; format: cell-based; details: Mammarenavirus tacaribeense, Vero
[2] = system: Candid 1; assay: organism not typed; format: cell-based, Junín virus; details: read-out: EC50 Candid 1
[3] = system: Vero cells
[4] = in vitro; details: African green monkey
[5] = system: Machupo virus; assay: microbe, parasite or virus in culture; format: cell-based; details: Mammarenavirus machupoense, Vero, 120 h, read-out: EC50 Category A NWA, Machupo
[6] = system: Guanarito virus; assay: microbe, parasite or virus in culture; format: cell-based; details: Mammarenavirus guanaritoense, Vero, 120 h, read-out: EC50 Category A NWA, Guanarito
[7] = system: Arenavirus; details: cited from earlier work
[8] = in vivo; cited from earlier work
[9] = in vivo; cited from earlier work; remark: listed apart in the source

CN1CCN(C(=O)Nc2ccc(Cl)c(Cl)c2)CC1 [Compound 20013]
EC50 ([1]; 168 h, read-out: EC50 Tacaribe): > 50000 nM
EC50 [2]: > 50000 nM
CC50 ([3]; African green monkey): > 50000 nM
CC50 [4]: > 50000 nM

CN1CCN(C(=S)Nc2ccc(Cl)c(Cl)c2)CC1 [Compound 313761, 4-methyl-piperazine-1-carbothioic acid (3,4-dichlorophenyl)-amide]
EC50 ([1]; 168 h, read-out: EC50 Tacaribe): 140 nM
EC50 ([1]; read-out: EC50 value in the CPE assay): 140 nM
EC50 [2]: 260 nM
EC50 [5]: 300 nM
EC50 [6]: 150 nM
toxicity / effect on cell growth at antiviral concentrations [3]: active at non-toxic concentrations
CC50 [4]: 50000 nM

Cc1c2oc3c(C)ccc(C(=O)N[C@@H]4C(=O)N[C@H](C(C)C)C(=O)N5CCC[C@H]5C(=O)N(C)CC(=O)N(C)[C@@H](C(C)C)C(=O)O[C@@H]4C)c3nc-2c(C(=O)N[C@@H]2C(=O)N[C@H](C(C)C)C(=O)N3CCC[C@H]3C(=O)N(C)CC(=O)N(C)[C@@H](C(C)C)C(=O)O[C@@H]2C)c(N)c1=O [actinomycin D] (I: T[dV]P[Sar][NMeV] / II: T[dV]P[Sar][NMeV]; ester I:1-I:C, II:1-II:C; linker I:N-II:N via Actinocin(9to1))
anti-Arenavirus activity [7]: generally weak and non-specific

NC12CC3CC(CC(C3)C1)C2 [amantadine]
anti-Arenavirus activity [7]: generally weak and non-specific

CN(C)CCCN1c2ccccc2Sc2ccc(Cl)cc21 [chlorpromazine]
anti-Arenavirus activity [7]: generally weak and non-specific

NC(=O)c1ncn([C@@H]2O[C@H](CO)[C@@H](O)[C@H]2O)n1 [ribavirin, Ribavirin]
adverse effects [8]: dose-related, reversible hemolytic anemia
reproductive toxicity [9]: teratogenicity and embryo lethality

CN1CCN(CCCN2c3ccccc3Sc3ccc(C(F)(F)F)cc32)CC1 [trifluoroperazine]
anti-Arenavirus activity [7]: generally weak and non-specific

Source: US8791110B2 (priority 2006, dated 2014)
